Laboratory results from PMC12827894, “Structure-guided design of picomolar-level macrocyclic TRPC5 channel inhibitors with antidepressant activity” (Acta Pharmaceutica Sinica. B, 2025).
pIC50: −log10 of the molar value.

Tests used:
TRPC1/5 = molecular target: T1, TRPC1/5 (Homo sapiens, UniProt P48995+Q9UL62); test: Whole-cell patch-clamp, TRPC1/5 heteromer, 100 nmol/L EA; type: cell-based; settings: read-out: IC50, TRPC1/5
T1 construct: full-length wild-type or mutant TRPC5 was cloned into a pcDNA3.1 vector; expressed in transfected cells; host or cells: HEK293T
Text: Given that TRPC4 and TRPC5 are highly similar and often form heteromeric with TRPC1, we evaluated JDIC-127's activity on TRPC4, TRPC1/4, and TRPC1/5 using whole-cell patch-clamp recordings under agonist stimulation with 100 nmol/L EA in HEK293T cells. […].
For electrophysiological activity testing of compounds against TRPC4 and TRPC5, stably expressed TRPC5 or TRPC4 cells were used for whole-cell patch-clamp recordings, employing a HEKA EPC10 amplifier and […] software (https://www.heka.com/downloads/downloads_main.html#down_patchmaster). Prior to recording, cells were induced with 1 μg/mL tetracycline for 24 h. For TRPC1/4 or TRPC1/5 heteromers, plasmids TRPC1 and TRPC5 or TRPC1 and TRPC4 were co-transfected into HEK293T cells. After 48 to 72 h of transfection, testing was performed. A 1-s ramp protocol from −100 to +100 mV at 0.2 Hz was applied, as previously described. The extracellular solution consisted of 140 mmol/L NaCl, 1 mmol/L MgCl2, 2 mmol/L CaCl2, 10 mmol/L Hepes, 5 mmol/L KCl, and 10 mmol/L D-glucose, with pH adjusted to 7.4 using NaOH. […] The half-maximal inhibitory concentration (IC50) of drugs was determined by recording currents at a +100 mV pulse and analyzing current amplitudes at varying drug concentrations, with IC50 values calculated using the Hill equation. […]

TRPC5 = molecular target: T2, TRPC5 (Homo sapiens, UniProt Q9UL62); test: Whole-cell patch-clamp, TRPC5, Ca2+-activated condition; type: cell-based; settings: read-out: IC50, TRPC5, endogenous Ca2+-evoked activation
T2 sequence (Q9UL62 1-973): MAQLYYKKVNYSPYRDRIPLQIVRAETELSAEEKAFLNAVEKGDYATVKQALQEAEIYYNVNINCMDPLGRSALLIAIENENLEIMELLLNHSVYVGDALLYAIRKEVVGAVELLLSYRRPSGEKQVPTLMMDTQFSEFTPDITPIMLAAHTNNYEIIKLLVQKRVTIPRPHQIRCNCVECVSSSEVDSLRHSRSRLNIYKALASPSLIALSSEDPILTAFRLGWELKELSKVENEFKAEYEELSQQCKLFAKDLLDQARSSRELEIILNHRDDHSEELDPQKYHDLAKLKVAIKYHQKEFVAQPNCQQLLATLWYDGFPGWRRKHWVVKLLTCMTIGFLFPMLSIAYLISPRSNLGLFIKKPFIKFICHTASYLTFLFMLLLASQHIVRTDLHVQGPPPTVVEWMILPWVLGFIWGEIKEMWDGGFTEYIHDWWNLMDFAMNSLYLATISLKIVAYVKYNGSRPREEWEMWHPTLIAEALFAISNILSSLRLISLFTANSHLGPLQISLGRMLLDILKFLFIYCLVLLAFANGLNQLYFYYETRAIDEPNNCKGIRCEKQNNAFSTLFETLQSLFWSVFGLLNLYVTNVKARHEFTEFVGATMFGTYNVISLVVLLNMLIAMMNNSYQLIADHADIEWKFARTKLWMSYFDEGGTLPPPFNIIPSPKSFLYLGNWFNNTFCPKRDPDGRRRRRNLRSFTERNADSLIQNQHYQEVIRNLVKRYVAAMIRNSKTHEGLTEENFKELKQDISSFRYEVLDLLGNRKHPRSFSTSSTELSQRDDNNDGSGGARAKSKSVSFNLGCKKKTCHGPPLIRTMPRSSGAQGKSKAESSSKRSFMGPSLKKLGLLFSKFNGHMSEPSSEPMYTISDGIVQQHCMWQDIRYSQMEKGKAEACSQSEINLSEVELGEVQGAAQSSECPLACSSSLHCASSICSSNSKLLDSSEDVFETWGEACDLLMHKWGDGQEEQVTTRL

H1 = H1 (Homo sapiens, UniProt P35367); test: cell-based; settings: read-out: Antagonist JDIC-127 @10 μmol/L
M3 = molecular target: T3, M3 (Homo sapiens, UniProt P20309); test: cell-based; type: cell-based
T3 construct: purchased ICE Bioscience ICESTP SafetyOne44 Panel

COX1 = COX1 (Homo sapiens, UniProt P23219)
5-HT2A = molecular target: T4, 5-HT2A (Homo sapiens, UniProt P28223); test: cell-based; type: cell-based
T4 construct: purchased ICE Bioscience ICESTP SafetyOne44 Panel

M2 = molecular target: T5, M2 (Homo sapiens, UniProt P08172); test: cell-based; type: cell-based
T5 construct: purchased ICE Bioscience ICESTP SafetyOne44 Panel

PDE4 D2 = molecular target: T6, PDE4 D2 (Homo sapiens, UniProt Q08499); test: biochemical; settings: PDE4D2, 10 μmol/L; read-out: Antagonist JDIC-127 @10 μmol/L
T6 construct: purchased ICE Bioscience ICESTP™ SafetyOne44 Panel

NR1/NR2B = molecular target: T7, NR1/NR2B (Homo sapiens, UniProt Q05586+Q13224); test: SafetyOne44 panel ion channels: NR1/NR2B; type: cell-based; settings: NR1/NR2B, 5 μmol/L
T7 construct: ICE Bioscience ICESTP SafetyOne44 Panel

TRPC5 F576A = molecular target: T8, TRPC5 F576A (Homo sapiens, UniProt Q9UL62, F576A); test: Inhibition of TRPC5 mutant F576A; type: cell-based; settings: TRPC5 F576A vs wild type
T8 construct: full-length wild-type or mutant TRPC5 was cloned into a pcDNA3.1 vector; expressed in transfected cells; host or cells: HEK293T

COX2 = COX2 (Homo sapiens, UniProt P35354); test: biochemical; settings: read-out: Antagonist JDIC-127 @10 μmol/L
V1a = V1a (Homo sapiens, UniProt P37288); test: cell-based; settings: read-out: Antagonist JDIC-127 @10 μmol/L
5-HT1A = molecular target: T9, 5-HT1A (Homo sapiens, UniProt P08908); test: cell-based; type: cell-based
T9 construct: purchased ICE Bioscience ICESTP SafetyOne44 Panel

[1] = antagonist mode, 10 μmol/L, read-out: Antagonist JDIC-127 @10 μmol/L

T5 sequence (P08172 whole entry): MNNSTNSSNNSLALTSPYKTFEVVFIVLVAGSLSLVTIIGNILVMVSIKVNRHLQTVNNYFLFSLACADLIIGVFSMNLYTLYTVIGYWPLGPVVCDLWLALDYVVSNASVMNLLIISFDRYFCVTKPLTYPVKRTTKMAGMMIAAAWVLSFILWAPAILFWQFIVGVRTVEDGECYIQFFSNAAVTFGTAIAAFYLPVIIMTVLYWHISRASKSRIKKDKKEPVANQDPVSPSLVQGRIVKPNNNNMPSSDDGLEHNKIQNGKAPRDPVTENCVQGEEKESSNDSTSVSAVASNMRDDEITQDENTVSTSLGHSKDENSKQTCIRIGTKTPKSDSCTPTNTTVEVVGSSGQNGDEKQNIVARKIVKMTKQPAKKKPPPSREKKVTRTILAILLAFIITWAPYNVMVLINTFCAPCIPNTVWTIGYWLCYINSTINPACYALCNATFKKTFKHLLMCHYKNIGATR
T4 sequence (P28223 whole entry): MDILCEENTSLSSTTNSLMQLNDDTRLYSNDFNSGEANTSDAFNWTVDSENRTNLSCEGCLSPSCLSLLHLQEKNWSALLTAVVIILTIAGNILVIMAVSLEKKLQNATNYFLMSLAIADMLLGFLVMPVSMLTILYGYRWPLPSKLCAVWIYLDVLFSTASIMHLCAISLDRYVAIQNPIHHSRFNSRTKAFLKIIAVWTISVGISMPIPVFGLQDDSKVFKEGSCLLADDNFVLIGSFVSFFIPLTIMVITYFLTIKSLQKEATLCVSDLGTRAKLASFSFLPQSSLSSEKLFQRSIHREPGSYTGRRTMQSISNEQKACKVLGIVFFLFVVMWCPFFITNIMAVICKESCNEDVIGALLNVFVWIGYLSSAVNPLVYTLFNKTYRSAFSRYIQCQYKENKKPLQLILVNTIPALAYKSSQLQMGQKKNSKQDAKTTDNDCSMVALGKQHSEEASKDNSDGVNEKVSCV
T7 sequence (Q13224 27-1484, other chains not shown): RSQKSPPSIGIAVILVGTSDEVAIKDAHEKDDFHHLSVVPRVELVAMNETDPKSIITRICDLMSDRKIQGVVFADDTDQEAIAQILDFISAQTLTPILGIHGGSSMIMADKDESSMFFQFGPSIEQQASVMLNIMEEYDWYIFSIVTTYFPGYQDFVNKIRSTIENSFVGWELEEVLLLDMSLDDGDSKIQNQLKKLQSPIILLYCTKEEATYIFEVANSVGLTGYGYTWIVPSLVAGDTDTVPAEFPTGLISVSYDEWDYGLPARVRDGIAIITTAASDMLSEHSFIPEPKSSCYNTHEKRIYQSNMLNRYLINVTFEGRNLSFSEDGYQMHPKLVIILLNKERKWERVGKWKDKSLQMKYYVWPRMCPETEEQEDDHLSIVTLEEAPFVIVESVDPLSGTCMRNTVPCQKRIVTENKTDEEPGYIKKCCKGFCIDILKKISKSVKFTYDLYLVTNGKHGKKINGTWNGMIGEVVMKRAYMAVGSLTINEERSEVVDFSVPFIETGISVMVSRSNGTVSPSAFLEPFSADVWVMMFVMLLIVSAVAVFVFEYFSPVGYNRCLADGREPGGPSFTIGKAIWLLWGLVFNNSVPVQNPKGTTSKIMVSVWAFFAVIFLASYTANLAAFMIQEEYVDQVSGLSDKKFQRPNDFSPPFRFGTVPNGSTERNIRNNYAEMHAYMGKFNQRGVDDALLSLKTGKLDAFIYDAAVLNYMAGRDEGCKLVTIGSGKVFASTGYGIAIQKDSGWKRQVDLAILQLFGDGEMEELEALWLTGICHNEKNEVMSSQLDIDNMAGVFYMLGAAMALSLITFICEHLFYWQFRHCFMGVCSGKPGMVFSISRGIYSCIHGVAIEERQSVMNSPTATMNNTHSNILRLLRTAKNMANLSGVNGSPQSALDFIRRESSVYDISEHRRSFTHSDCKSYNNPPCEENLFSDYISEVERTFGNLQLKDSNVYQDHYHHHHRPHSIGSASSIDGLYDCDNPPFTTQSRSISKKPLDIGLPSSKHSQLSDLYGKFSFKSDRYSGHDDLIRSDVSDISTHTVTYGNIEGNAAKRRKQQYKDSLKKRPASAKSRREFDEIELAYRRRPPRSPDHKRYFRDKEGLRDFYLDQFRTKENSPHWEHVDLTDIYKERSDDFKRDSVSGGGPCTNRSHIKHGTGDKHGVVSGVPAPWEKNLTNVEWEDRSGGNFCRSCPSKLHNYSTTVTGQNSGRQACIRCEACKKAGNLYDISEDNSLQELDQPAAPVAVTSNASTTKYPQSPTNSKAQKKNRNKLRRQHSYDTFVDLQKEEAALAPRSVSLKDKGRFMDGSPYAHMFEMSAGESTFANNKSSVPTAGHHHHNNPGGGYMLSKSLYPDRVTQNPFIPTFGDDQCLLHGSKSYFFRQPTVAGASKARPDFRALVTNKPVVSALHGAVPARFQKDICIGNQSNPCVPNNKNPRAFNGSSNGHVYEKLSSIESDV
T9 sequence (P08908 whole entry): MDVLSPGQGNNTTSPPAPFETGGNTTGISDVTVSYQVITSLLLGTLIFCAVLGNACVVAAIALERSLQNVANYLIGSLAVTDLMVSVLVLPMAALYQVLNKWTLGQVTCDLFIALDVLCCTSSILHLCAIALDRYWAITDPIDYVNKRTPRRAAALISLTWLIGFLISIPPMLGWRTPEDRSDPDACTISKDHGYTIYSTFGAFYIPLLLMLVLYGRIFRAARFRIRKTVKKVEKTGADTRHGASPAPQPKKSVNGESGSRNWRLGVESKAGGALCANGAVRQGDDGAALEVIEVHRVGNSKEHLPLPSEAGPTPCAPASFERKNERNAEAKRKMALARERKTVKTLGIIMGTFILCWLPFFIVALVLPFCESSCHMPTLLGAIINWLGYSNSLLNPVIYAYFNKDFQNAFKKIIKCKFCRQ
T3 sequence (P20309 whole entry): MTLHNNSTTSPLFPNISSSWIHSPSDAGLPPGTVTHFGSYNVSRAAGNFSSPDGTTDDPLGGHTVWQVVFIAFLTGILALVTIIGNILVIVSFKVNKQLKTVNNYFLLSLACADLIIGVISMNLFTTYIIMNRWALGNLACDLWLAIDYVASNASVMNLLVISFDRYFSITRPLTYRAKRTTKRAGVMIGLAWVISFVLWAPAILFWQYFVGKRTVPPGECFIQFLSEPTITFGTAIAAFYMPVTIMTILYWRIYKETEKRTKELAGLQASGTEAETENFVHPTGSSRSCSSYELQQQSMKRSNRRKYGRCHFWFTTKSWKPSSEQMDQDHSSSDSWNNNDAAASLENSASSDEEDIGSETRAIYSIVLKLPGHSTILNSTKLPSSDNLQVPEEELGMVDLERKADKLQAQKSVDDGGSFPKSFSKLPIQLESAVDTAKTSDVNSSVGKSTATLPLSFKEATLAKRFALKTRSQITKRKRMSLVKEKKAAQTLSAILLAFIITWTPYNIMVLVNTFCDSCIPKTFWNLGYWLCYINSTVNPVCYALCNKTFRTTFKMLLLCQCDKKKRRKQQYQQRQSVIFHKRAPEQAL
T8 sequence (Q9UL62 whole entry F576A): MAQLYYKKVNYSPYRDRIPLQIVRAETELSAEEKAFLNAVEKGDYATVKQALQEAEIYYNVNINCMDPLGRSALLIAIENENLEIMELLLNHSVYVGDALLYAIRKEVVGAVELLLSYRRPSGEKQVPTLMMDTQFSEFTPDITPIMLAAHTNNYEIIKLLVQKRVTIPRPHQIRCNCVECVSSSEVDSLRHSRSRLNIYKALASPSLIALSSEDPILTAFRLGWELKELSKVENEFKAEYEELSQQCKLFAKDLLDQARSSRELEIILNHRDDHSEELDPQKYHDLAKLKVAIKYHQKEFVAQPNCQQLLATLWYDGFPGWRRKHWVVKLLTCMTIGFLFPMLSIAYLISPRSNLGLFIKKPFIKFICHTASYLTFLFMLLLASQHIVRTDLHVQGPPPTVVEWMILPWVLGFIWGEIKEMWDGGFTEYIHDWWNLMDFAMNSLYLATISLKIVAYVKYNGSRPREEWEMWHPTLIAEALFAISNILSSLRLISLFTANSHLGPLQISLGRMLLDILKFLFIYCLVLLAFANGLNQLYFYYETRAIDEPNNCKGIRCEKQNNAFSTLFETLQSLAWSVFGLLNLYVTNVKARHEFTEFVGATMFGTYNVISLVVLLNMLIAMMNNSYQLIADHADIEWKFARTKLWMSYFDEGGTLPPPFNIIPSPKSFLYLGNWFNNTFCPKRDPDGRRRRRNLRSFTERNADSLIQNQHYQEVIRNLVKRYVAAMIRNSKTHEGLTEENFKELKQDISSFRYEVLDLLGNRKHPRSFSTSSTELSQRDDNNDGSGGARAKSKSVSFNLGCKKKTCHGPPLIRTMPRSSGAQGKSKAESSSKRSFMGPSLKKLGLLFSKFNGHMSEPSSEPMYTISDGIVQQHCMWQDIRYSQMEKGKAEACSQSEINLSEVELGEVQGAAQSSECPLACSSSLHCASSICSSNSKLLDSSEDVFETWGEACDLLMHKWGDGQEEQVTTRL
Sequence of V1a (P37288 whole entry): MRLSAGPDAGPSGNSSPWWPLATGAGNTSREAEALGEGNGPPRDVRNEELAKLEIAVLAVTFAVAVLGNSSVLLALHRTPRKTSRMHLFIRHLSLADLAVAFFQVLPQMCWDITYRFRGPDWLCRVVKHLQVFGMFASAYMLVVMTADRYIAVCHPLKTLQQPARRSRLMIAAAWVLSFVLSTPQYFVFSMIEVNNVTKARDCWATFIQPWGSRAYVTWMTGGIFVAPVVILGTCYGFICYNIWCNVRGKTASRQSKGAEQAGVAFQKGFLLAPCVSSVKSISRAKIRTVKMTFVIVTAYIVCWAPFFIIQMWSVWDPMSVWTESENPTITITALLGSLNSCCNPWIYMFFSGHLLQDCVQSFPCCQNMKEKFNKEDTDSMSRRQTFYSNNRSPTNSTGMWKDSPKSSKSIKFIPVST

Work on `O=c1c2c3nc(n2Cc2ccc(Cl)cc2)Oc2ccc(F)c(c2)OCCCCCCn3c(=O)n1CCCO` [JDIC-127] yielded a pIC50 (TRPC1/5) of 9.45, a pIC50 (TRPC5) of 11.85 and an inhibition at 10 µM (H1) of -3.39%. The “Agonist JDIC-127 @10 μmol/L” value (M3; M3, agonist mode) was 0.99%, the inhibition at 10 µM (M3; M3, antagonist mode, 10 μmol/L, read-out: Antagonist JDIC-127 @10 μmol/L) was -1.46% and the “Antagonist JDIC-127 @10 μmol/L” value (COX1) was “–5.92%”. For the same compound, the “Agonist JDIC-127 @10 μmol/L” value (5-HT2A; agonist mode) was 3.92%, the inhibition at 10 µM (5-HT2A; [1]) was 5.24% and the “Agonist JDIC-127 @10 μmol/L” value (M2; M2, agonist mode) was 2.82%. For the same compound, the inhibition at 10 µM (M2; M2, antagonist mode, 10 μmol/L, read-out: Antagonist JDIC-127 @10 μmol/L) was -0.26%, the inhibition at 10 µM (PDE4 D2) was 11.4% and the “Agonist JDIC-127 @ 5 μmol/L” value (NR1/NR2B; agonist mode) was 1.53%. For the same compound, the “Antagonist JDIC-127 @5 μmol/L” value (NR1/NR2B; antagonist mode) was 17.19%, the “effect of mutation on inhibitory potency of JDIC-127” value (TRPC5 F576A) was “significantly diminished” and the inhibition at 10 µM (COX2) was 1.38%. For the same compound, the inhibition at 10 µM (V1a) was -0.83%, the “Agonist JDIC-127 @10 μmol/L” value (5-HT1A; agonist mode) was “–1.59%” and the inhibition at 10 µM (5-HT1A; [1]) was -6.7%.
